Measurements published in patent US9587220B2, “Method for inducing cardiac differentiation of pluripotent stem cell” (Kyoto University, priority 2012, dated 2017).
“Also recorded” adds a separate entry of the source. Read-outs that look alike come from different tables or passages of the source.

Columns and labels:
[1] = tested on: human αMHC promoter-driven EGFP transgenic monkey ESCs; assay: αMHC promoter-driven GFP expression, cardiac differentiation of transgenic monkey ESCs (HCA); assay type: cell-based; settings: for intensity of the GFP signal driven by αMHC promoter: comparison of chemical and proteinaceous WNT inhibitors, FIG. 3b,c
From the text: To generate human αMHC promoter-driven EGFP-expressing monkey ESCs, the 918 bp upstream from the transcriptional starting site and the third exon just before the open reading frame were amplified from genomic DNAs of KhES-1 hESCs by PCR, using the following primer sets —forward primer, 5′- […]-3′ (SEQ ID No: 37); reverse primer, 5′- (including a SalI linker) 22 […]-3′ (SEQ ID No: 38)—and then ligated into pGEM-T Easy Vector (Promega). The HindIII/SalI fragment from the cloning vector was connected with pEGFP-1 (Clontech). The linearized αMHC-EFGP vector was introduced into CMK6.4 monkey ESCs by electroporation. Transgenic ESC clones were selectively grown with G418 (Sigma-Aldrich). The expression of EGEP was confirmed in beating colonies.
The confluent (4-5 d after passage) αMHC-GFP transgenic monkey ESCs were dissociated enzymatically by CTK solution (Non-patent literature 1), and the ESC clumps (40-100 μm in diameter) were obtained using 40 and 100 μm Cell Strainers (BD Biosciences). The ESC clumps (approximately 5.0×10^3 cells well^−1) were transferred onto 96-well plates (Greiner Bio-One, 96-well black plate, Cat. No. 655090) and incubated in cardiac differentiation medium as described in (4) below. During Days 6-14 of cardiac differentiation, 9600 compounds from the chemical library (dissolved in DMSO) were screened using 96-well plates. Sixteen and 80 wells were used for the control (0.1% DMSO) and chemical compounds (1 per well), respectively. Final concentration of the each compound was approximately 1-5 μM. Medium containing small molecules was changed every 4 d. On Day 14, GFP fluorescence of ESCs was measured by whole-plate scanning, using the Metamorph imaging system (Molecular Device). Metamorph software was used to analyze the GFP fluorescence data and calculate Fluorescence Area, Total Fluorescence Intensity, Average Fluorescence Intensity, and number of GFP-positive colonies for each well. Hit compounds were determined by the following criteria: Average Fluorescence Intensity of a well with the compound was >6 SD greater than Average Fluorescence Intensity of the control (mean of 16 wells), and Total Fluorescence Intensity for the compound was >0 SD greater than the control; or Total Fluorescence Intensity of the compound was >4 SD greater than the control, and Average Fluorescence Intensity of the compound was >0 SD greater than the control. One hundred and twenty compounds passed these criteria and were retested using 8 wells for each compound.
Confluent hESCs and hiPSCs were gently detached with CTK solution and transferred into Petri dishes (BD Biosciences) with Primate ES Cell Culture Medium (ReproCELL, Japan). Cells were held in suspension culture for 8-24 h to form aggregates. The sizes of hPSC aggregates (0.3-1 mm in diameter) are important for efficient differentiation. Following suspension culture, cell aggregates were attached to culture dishes (3-10×10^5 cells cm^−2) in cardiac differentiation medium: IMDM (Sigma), containing 20% FBS (Gibco), 1% MEM non-essential amino acid solution (Sigma), 1% Penicillin-Streptomycin (Gibco), 2 mM L-glutamine (Sigma), 0.001% 2-Mercaptoethanol (Gibco), and 0.005N NaOH, with 10 ng ml^−1 BMP4 (R&D Systems). The medium was changed to cardiac differentiation medium with 10 μM KY02111 and/or other WNT inhibitors added on Day 3 (hiPSC lines) or Day 4 (human or monkey ESC lines); XAV939 (Wako, Japan), IWP-2 (Santa Cruz Biotechnology), IWR-1 (Merck4Bioscience), IGFBP4 (R&D Systems), Dkk1 (R&D Systems) and the mixture of bFGF (R&D Systems), BMP4 (R&D Systems), VEGF (R&D Systems), DKK1 (R&D Systems), and Activin A (R&D Systems) (Non-patent literature 16). Medium was changed every 2-3 d. KY02111 and other WNT inhibitors were added until Day 9 for hiPSC lines and the monkey ESC line, or Day 14 for hESC lines. […]

[2] = tested on: human αMHC promoter-driven EGFP transgenic monkey ESCs; assay: as above; assay type: cell-based
[3] = tested on: KY02111-induced cardiomyocytes (KY-CMs); settings: depolarizing pulses -40 to +40 mV for 500 msec
Description: Cells were isolated from beating hPSC-derived cardiomyocytes, using protease solution. The dissociated cells were cultured for 3-7 d on gelatin-coated cover glasses. Patch-clamp recordings were performed in a temperature-controlled room at approximately 25° C. Data from the whole cell patch-clamp configuration were recorded from spontaneously beating cells, using a HEKA EPC10 amplifier (HEKA Instruments Inc.). An external solution containing 140 mM NaCl, 5 mM KCl, 10 mM HEPES, 2 mM CaCl2, 1 mM MgCl2, and 10 mM glucose was adjusted to pH 7.2 with NaOH. A pipette solution containing 80 mM K-aspartate, 50 mM KCl, 1 mM MgCl2, 10 mM EGTA, 3 mM ATP-Mg, and 10 mM HEPES was adjusted to pH 7.2 with KOH. […] The inhibitors were obtained from Sigma-Aldrich. […] The current-voltage relationship was obtained by holding the membrane potential at −40 to −60 mV, and delivering a depolarizing pulse for 500 ms in a stepwise manner, in increments from −60 to 60 mV for INa, −40 to 40 mV for ICaL, −40 to 40 mV for IKs and IKr, and −50 to −140 mV for Ih.

KY-CM colony = assay: QT interval prolongation assay on microelectrode array; assay type: cell-based, human; settings: astemizole 300 pM to 30 μM, increased every 4 min
Description: Microelectrode array (MEA) dishes (Multi Channel Systems, Reutlingen, Germany) were coated with ReproCoat (RCESD006, ReproCELL, Japan) in 5% CO2 for 1 h at 37° C. After coating, KY02111-induced cardiomyocytes at Day 30 were transferred into 1 ml of Cardiomyocyte Culture Medium (RCESD006, ReproCELL, Japan) on the MAE dish. Using a pipet tip or glass bar, the cardiomyocytes were gently moved onto the electrode and cultured overnight to attach to the MEA dishes. On the following day, the medium was changed into Cardiomyocyte Test Medium (RCESD003, ReproCELL, Japan). After confirming the presence of beating cardiomyocytes, the MEA dishes were attached to an MEA amplifier (Multi Channel Systems, Reutlingen, Germany), and electrocardiogram-like waves were recorded. After 2 min of recording, 300 pM astemizole (Sigma) or 0.1% DMSO were added, and the concentrations of astemizole (300 pM to 30 μM) were increased every 4 min. ECG-like waves were recorded after 2 min of each astemizole treatment. Beating rate, Na^+ amplitude, K^+ amplitude, and Na^+—K^+ interval were analyzed by LabChart™ software v7 (ADInstruments, Adelaide, Australia).

[4] = tested on: WNT target genes in IMR90-1 hiPSCs; assay: Microarray and qPCR gene expression of WNT target genes; assay type: cell-based, human; settings: 12, 24 and 72 h after treatment
Description: IMR90-1 iPSCs were cultured in cardiac differentiation medium containing serum. On Day 3, cells were treated with 10 μM KY02111 or 0.1% DMSO for 0, 12, or 24 h. Non-treated cells (0 h), cells treated with KY02111 for 12 h (KY12hr) or 24 h (KY24hr), and cells treated with 0.1% DMSO for 12 h (DMSO12hr) or 24 h (DMSO24hr) were used for microarray analysis. Total RNA was prepared using the RNeasy Mini Kit (Qiagen), according to the manufacturer's instructions. Synthesis of cDNA, in vitro transcription and biotin labeling cRNA, and hybridization to the Human Gene 1.0 ST array (Affymetrix) were performed according to Affymetrix protocols. Hybridized arrays were scanned using an Affymetrix GeneChip Scanner. Data normalization and further analysis were performed with GeneSpring GX (Agilent Technologies). Proportions of treated cells expressing genes relative to control (KY02111/DMSO) were calculated for each time point. […] The microarray data have been submitted to the Gene Expression Omnibus (GEO) public database at NCBI (GEO accession number, GSE33622).
Total RNA was isolated with an RNeasy Mini Kit (QIAGEN). Genomic DNA was completely digested with DNase I (Invitrogen). Total RNA (0.5 μg) was subjected to cDNA synthesis using the SuperScript III Reverse Transcriptase (Invitrogen). qRT-PCR was performed in triplicate, using SYBER GREEN PCR Master Mix on a 7500 Real Time PCR System (Applied Biosystems). The cycling conditions were as follows: 10 min at 95° C.; 40 cycles, each consisting of 15 s at 95° C.; 1 min at 60° C. Total RNA from human adult heart tissue (BioChain) was used to evaluate the expression levels of cardiac marker genes for cardiomyocytes derived from hPSCs. All values were normalized with respect to GAPDH expression level and expressed relative to the corresponding values in human adult hearts (100%).

COc1ccc2nc(NC(=O)Cc3ccc(OC)c(OC)c3)sc2c1 [N11474]
GFP fluorescence of ESCs compared to DMSO ([1]; chemical screening, treatment Days 6-14, P=0.015): significantly increased; also recorded: significantly enhanced | αMHC promoter-driven EGFP signal on Day 14 ([2]; treatment after Day 8 (Days 8-12 or Days 10-14)): less effective | αMHC promoter-driven EGFP signal on Day 14 ([2]; treatment on Days 0-4): completely repressed GFP expression; also recorded: completely suppressed GFP expression | αMHC promoter-driven EGFP signal on Day 14 ([2]; treatment on Days 4-8): maximized the increase in GFP expression; also recorded: most effective | αMHC promoter-driven EGFP signal on Day 14 ([2]; treatment on Days 6-10): similarly effective to the screening protocol

CCS(=O)(=O)N(C)[C@H]1c2cc(C#N)ccc2OC(C)(C)[C@@H]1O [chromanol293B]
KCNQ1 current (IKs) [3]: clearly detected | KCNQ1 current (IKs) ([3]; listed as Chromanol293B): suppressed

COc1ccc(CCCC(=O)Nc2nc3ccc(Cl)cc3s2)cc1OC [KY02114, 2-(4-(3,4-dimethoxyphenyl)butanamide)-6-chlorobenzothiazole]
GFP expression level induced by N11474 and related compounds (structure-activity) ([1]; DMSO=100%): induced the highest levels

COc1ccc(CCN2CCC(Nc3nc4ccccc4n3Cc3ccc(F)cc3)CC2)cc1 [astemizole]
Na+-K+ interval of ECG-like waves (KY-CM colony): prolonged

O=C1Nc2cc(Br)ccc2/C1=C1/Nc2ccccc2/C1=N\O [BIO]
expression levels of WNT target genes by qPCR [4]: tended to augment

O=C(Nc1cccc2cccnc12)c1ccc(N2C(=O)[C@@H]3[C@H](C2=O)[C@@H]2C=C[C@H]3C2)cc1 [IWR-1, reference compound]
intensity of the GFP signal driven by αMHC promoter [1]: increased

B1: IGFBP4: proteinaceous WNT inhibitor (protein, UniProt P22692 22-258, looked up)
Insulin-like growth …: DEAIHCPPCSEEKLARCRPPVGCEELVREPGCGCCATCALGLGMPCGVYTPRCGSGLRCYPPRGVEKPLHTLMHGQGVCMELAEIEAIQESLQPSDKDEGDHPNNSFSPCSAHDRRCLQKHFAKIRDRSTSGGKMKVNGAPREDARPVPQGSCQSELHRALERLAASQSRTHEDLYIIPIPNCDRNGNFHPKQCHPALDGQRGKCWCVDRKTGVKLPGGLEPKGELDCHQLADSFRE
intensity of the GFP signal driven by αMHC promoter [1]: increased

B2: DKK1: proteinaceous WNT inhibitor (protein, UniProt O94907 32-266, looked up)
Dickkopf-related protein 1: TLNSVLNSNAIKNLPPPLGGAAGHPGSAVSAAPGILYPGGNKYQTIDNYQPYPCAEDEECGTDEYCASPTRGGDAGVQICLACRKRRKRCMRHAMCCPGNYCKNGICVSSDQNHFRGEIEETITESFGNDHSTLDGYSRRTTLSSKMYHTKGQEGSVCLRSSDCASGLCCARHFWSKICKPVLKEGQVCTKHRRKGSHGLEIFQRCYCGEGLSCRIQKDHHQASNSSRLHTCQRH
intensity of the GFP signal driven by αMHC promoter [1]: increased
